Like-named read-outs stand apart in the source and are kept apart here.
Tests used:
[1] = molecular target: T1, rat brain N-type calcium channel subunits (α1B+α2δ+β1b) (Rattus norvegicus, UniProt Q02294); assay: N-type calcium channel block, whole cell patch clamp in HEK 293 cells; type: cell-based; conditions: holding −80 mV to +10 mV, 5 mM Ba
T1 construct: expressed in transfected cells; host or cells: HEK 293
Protocol: Antagonist activity was measured using whole cell patch recordings on human embryonic kidney cells either stably or transiently expressing rat α1B+α2δ+β1b channels (N-type channels) with 5 mM barium as a charge carrier. P/Q-type channels (α1A+α2δ+β1b cDNA subunits) and L-type channels (α1C+α2δ+β1b cDNA subunits) were also transiently expressed in HEK 293 cells.
For transient expression, host cells, such as human embryonic kidney cells, HEK 293 (ATCC# CRL 1573) were grown in standard DMEM medium supplemented with 2 mM glutamine and 10% fetal bovine serum. HEK 293 cells were transfected by a standard calcium-phosphate-DNA coprecipitation method using the rat α1B+β1b+α2δ N-type calcium channel subunits in a vertebrate expression vector (for example, see Current Protocols in Molecular Biology).
After an incubation period of from 24 to 72 hrs the culture medium was removed and replaced with external recording solution (see below). Whole cell patch clamp experiments were performed using an Axopatch 200B amplifier (Axon Instruments, Burlingame, Calif.) linked to an IBM compatible personal computer equipped with pCLAMP software. Borosilicate glass patch pipettes (Sutter Instrument Co., Novato, Calif.) were polished (Microforge, Narishige, Japan) to a resistance of about 4 MΩ when filled with cesium methanesulfonate internal solution (composition in MM: 109 CsCH3 SO4, 4 MgCl2, 9 EGTA, 9 HEPES, pH 7.2). Cells were bathed in 5 mM Ba^++ (in mM: 5 BaCl2, 1 MgCl2, 10 HEPES, 40 tetraethylammonium chloride, 10 glucose, 87.5 CsCl pH 7.2). […] Drugs were perfused directly into the vicinity of the cells using a microperfusion system.
Normalized dose-response curves were fit (Sigmaplot 4.0, SPSS Inc., Chicago, Ill.) by the Hill equation to determine IC50 values. Steady-state inactivation curves were plotted as the normalized test pulse amplitude following 5 s inactivating prepulses at +10 mV increments. Inactivation curves were fit (Sigmaplot 4.0) with the Boltzman equation, Ipeak (normalized)=1/(1+exp((V−Vh)z/25.6)), where V and Vh are the conditioning and half inactivation potentials, respectively, and z is the slope factor.
N-type calcium channel blocking activity was assayed in human embryonic kidney cells, HEK 293, stably transfected with the rat brain N-type calcium channel subunits (α1B+α2δ+β1b cDNA subunits). Alternatively, N-type calcium channels (α1B+α2δ+β1b cDNA subunits), L-type channels (α1C+α2δ+β1b cDNA subunits) and P/Q-type channels (α1A+α2δ+β1b cDNA subunits) were transiently expressed in HEK 293 cells. Briefly, cells were cultured in Dulbecco's modified eagle medium (DMEM) supplemented with 10% fetal bovine serum, 200 U/ml penicillin and 0.2 mg/ml streptomycin at 37° C. with 5% CO2. At 85% confluency cells were split with 0.25% trypsin/1 mM EDTA and plated at 10% confluency on glass coverslips. At 12 hours the medium was replaced and the cells transiently transfected using a standard calcium phosphate protocol and the appropriate calcium channel cDNA's. Fresh DMEM was supplied and the cells transferred to 28° C./5% CO2. Cells were incubated for 1 to 2 days to whole cell recording.
Whole cell patch clamp experiments were performed using an Axopatch 200B amplifier (Axon Instruments, Burlingame, Calif.) linked to a personal computer equipped with pCLAMP software. The external and internal recording solutions contained, respectively, 5 mM BaCl2, […], 10 mM HEPES, 40 mM TEACl, 10 mM glucose, 87.5 mM CsCl (pH 7.2) and 108 mM CsMS, 4 mM MgCl2, 9 mM EGTA, 9 mM HEPES (pH 7.2). Currents were typically elicited from a holding potential of −80 mV to +10 mV using Clampex software (Axon Instruments).

[2] = molecular target: T2, human α1G T-type channels (Homo sapiens, UniProt O43497); assay: Block of α1G T-type channels, whole-cell patch clamp in HEK cells; type: cell-based
T2 construct: expressed in transfected cells
T2 sequence (O43497 whole entry): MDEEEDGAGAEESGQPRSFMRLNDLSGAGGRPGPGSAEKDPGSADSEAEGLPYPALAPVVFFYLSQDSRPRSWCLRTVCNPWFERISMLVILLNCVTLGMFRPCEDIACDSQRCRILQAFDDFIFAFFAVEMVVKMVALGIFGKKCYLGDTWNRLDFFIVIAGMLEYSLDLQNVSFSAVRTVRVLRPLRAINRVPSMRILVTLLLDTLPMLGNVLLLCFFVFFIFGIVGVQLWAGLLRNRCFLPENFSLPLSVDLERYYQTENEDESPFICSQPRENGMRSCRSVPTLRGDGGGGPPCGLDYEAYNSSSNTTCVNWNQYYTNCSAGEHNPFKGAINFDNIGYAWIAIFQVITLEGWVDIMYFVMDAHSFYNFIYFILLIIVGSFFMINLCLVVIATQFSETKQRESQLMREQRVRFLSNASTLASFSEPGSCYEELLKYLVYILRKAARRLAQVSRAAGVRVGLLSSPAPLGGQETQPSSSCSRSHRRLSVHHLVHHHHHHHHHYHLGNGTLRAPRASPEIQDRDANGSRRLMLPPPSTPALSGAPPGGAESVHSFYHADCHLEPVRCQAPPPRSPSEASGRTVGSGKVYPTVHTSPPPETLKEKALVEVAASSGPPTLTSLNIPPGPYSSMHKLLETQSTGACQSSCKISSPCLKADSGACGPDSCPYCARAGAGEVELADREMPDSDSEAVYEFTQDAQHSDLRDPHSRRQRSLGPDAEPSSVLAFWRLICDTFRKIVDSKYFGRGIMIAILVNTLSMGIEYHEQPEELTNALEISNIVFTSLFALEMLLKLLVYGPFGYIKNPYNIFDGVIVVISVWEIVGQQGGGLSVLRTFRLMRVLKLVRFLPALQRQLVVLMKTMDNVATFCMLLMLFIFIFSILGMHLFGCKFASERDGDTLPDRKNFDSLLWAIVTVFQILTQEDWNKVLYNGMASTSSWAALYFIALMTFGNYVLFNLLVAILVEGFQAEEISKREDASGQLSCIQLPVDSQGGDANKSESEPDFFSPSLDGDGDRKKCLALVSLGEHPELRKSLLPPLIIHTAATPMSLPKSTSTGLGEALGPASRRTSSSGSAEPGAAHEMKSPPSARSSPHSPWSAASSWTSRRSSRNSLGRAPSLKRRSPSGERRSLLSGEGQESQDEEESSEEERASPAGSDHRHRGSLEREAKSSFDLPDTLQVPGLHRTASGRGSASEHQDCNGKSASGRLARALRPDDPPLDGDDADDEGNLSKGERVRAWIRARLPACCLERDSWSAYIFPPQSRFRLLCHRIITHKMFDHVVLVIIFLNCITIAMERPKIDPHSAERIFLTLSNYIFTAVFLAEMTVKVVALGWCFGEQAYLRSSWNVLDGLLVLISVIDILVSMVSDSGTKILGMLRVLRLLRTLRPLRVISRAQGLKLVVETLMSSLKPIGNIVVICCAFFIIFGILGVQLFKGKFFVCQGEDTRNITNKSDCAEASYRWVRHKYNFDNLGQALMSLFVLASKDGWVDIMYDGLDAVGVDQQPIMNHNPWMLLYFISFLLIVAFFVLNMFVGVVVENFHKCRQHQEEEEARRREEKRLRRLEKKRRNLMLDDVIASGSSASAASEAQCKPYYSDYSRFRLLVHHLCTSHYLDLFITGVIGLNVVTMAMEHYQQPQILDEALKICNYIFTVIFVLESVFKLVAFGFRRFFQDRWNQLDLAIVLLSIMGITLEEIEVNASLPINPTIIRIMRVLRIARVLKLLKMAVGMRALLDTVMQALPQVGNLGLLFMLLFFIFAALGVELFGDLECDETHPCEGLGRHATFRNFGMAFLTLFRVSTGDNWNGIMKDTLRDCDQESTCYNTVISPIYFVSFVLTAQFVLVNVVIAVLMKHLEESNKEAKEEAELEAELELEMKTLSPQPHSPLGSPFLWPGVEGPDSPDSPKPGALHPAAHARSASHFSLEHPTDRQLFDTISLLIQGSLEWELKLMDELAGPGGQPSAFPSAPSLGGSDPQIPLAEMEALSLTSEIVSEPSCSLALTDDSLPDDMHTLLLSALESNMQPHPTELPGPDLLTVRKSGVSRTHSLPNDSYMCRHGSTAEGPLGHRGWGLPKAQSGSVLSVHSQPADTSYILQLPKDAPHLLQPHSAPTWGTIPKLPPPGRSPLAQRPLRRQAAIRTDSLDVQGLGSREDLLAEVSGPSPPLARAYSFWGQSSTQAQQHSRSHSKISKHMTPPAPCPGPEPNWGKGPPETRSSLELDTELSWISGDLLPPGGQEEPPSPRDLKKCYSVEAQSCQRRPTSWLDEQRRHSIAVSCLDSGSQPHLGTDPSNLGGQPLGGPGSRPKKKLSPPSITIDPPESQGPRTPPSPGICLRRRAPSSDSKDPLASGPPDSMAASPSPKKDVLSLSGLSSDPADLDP
Protocol: Standard patch-clamp techniques were employed to identify blockers of T-type currents. Briefly, previously described HEK cell lines stably expressing human α1G T-type channels were used for all the recordings (passage #: 4-20, 37° C., 5% CO2). To obtain T-type currents, plastic dishes containing semi-confluent cells were positioned on the stage of a ZEISS AXIOVERT S100 microscope after replacing the culture medium with external solution (see below). Whole-cell patches were obtained using pipettes (borosilicate glass with filament, O.D.: 1.5 mm, I.D.: 0.86 mm, 10 cm length), fabricated on a SUTTER P-97 puller with resistance values of ˜5 MΩ (see below for internal solution).
In the non-inactivating protocol, the holding potential is set at −110 mV and with a pre-pulse at −100 mV for 1 second prior to the test pulse at −40 mV for 50 ms. […]
Test compounds were dissolved in external solution, 0.1-0.01% DMSO. After ˜10 min rest, they were applied by gravity close to the cell using a WPI microfil tubing. The “non-inactivated” pre-pulse was used to examine the resting block of a compound. The “inactivated” protocol was employed to study voltage-dependent block. However, the initial data shown below were mainly obtained using the non-inactivated protocol only. IC50 values are shown for various compounds of the invention in Table 6.

[3] = low frequency stimulation 0.067 Hz (tonic block), read-out: IC50 at 0.067 Hz
[4] = non-inactivating protocol, pre-pulse −100 mV (resting block), read-out: IC50 at −100 mV
[5] = pulse frequency 0.2 Hz (frequency dependent block), read-out: IC50 at 0.2 Hz
[6] = inactivation protocol (voltage-dependent block), read-out: IC50 at −80 mV

T1 sequence (Q02294 whole entry): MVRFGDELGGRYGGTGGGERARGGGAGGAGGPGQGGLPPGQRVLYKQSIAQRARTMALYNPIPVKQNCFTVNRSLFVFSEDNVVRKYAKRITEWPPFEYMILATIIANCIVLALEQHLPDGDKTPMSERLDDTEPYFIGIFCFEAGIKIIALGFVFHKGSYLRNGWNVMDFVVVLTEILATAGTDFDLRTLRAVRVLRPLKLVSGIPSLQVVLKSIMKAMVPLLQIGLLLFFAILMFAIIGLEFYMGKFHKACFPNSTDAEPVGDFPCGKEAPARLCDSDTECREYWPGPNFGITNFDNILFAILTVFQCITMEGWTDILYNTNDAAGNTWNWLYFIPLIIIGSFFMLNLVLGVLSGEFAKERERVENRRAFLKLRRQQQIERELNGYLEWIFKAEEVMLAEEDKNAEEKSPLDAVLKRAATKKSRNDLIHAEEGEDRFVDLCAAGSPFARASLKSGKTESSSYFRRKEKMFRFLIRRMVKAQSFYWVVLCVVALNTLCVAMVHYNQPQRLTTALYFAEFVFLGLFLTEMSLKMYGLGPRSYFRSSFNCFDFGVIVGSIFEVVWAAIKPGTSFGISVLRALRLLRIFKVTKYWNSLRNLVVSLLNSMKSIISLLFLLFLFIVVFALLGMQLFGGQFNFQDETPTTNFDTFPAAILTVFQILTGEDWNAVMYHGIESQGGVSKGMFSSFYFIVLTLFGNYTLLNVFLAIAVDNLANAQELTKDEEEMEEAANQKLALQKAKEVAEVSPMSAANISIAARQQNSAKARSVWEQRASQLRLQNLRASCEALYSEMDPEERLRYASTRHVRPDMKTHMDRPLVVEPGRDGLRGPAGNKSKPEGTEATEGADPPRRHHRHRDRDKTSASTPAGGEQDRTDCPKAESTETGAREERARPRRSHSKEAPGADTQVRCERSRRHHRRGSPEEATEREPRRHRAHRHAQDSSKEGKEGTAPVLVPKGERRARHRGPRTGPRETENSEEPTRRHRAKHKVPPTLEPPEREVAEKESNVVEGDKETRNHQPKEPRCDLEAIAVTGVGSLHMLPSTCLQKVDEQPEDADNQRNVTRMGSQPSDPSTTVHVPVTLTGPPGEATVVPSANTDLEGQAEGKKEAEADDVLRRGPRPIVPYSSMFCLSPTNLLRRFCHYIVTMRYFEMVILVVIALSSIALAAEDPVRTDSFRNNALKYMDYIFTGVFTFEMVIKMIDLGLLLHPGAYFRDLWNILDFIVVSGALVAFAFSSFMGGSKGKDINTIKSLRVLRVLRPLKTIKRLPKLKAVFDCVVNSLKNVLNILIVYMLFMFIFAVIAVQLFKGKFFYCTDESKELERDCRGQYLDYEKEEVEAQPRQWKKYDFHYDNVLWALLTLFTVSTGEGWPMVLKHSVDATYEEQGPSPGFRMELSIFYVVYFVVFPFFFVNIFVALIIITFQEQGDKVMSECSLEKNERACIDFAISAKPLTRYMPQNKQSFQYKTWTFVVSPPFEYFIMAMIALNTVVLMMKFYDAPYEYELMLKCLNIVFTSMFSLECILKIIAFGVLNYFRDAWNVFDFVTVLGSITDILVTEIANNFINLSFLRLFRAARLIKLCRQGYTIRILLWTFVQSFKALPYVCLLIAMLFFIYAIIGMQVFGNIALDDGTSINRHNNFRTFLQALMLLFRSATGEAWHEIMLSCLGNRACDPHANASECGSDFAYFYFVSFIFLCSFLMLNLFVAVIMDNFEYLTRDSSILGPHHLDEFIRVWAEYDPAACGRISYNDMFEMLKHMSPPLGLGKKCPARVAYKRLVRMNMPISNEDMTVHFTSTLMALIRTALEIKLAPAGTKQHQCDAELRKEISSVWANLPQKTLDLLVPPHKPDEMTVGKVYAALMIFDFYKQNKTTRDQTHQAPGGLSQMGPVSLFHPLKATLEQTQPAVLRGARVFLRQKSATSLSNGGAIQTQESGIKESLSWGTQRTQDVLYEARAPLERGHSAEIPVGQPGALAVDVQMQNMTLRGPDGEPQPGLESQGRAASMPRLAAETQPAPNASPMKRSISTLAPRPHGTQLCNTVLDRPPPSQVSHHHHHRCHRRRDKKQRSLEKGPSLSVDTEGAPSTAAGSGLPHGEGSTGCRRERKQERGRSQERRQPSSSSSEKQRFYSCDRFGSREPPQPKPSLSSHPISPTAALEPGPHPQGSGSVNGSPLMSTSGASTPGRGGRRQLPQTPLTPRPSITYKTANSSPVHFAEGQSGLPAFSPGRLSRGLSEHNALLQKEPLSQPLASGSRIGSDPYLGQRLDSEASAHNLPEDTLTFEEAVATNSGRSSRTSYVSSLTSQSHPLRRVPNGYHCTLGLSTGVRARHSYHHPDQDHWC

IC50 [1, 3] [nM] | IC50 [2, 4] [nM] | IC50 [1, 5] [nM] | IC50 [2, 6] [nM] | SMILES
23 | 111 | 8 | 28 | O=C(CC(c1ccccc1)c1ccccc1)NCC1CCN(C(c2ccccc2)c2ccccc2Cl)C1 (centres unmarked) [Compound P37]
223 | – | 157 | – | CN(CC1CCN(C(c2ccccc2)c2ccccc2)C1)C(=O)CC(c1ccccc1)c1ccccc1 (centres unmarked) [Compound P53]
326 | 57 | 226 | 18 | CN(CCN(c1ccccc1)c1ccccc1)CC1CCN(C(c2ccccc2)c2ccccc2)C1 (centres unmarked) [Compound P55]
8000 | 40000 | 2000 | 6000 | c1ccc(C(c2ccccc2)N2CCC(CN(CCN(c3ccccc3)c3ccccc3)CCN(c3ccccc3)c3ccccc3)C2)cc1 (centres unmarked) [Compound P59]
279 | 153 | 241 | 55 | CN(CC(=O)N(c1ccccc1)c1ccccc1)CC1CCN(C(c2ccccc2)c2ccccc2)C1 (centres unmarked) [Compound P54]
19 | 328 | 3 | 105 | Cc1cc(C)cc(NCC(=O)NCC2CCN(C(=O)CCCCC(c3ccc(F)cc3)c3ccc(F)cc3)C2)c1 (centres unmarked) [Compound P40]
7 | 23 | 1 | 5 | O=C(CN(CC(=O)N(c1ccccc1)c1ccccc1)CC1CCN(C(c2ccccc2)c2ccccc2)C1)N(c1ccccc1)c1ccccc1 (centres unmarked) [Compound P46]
135 | – | 110 | – | CC(C)(C)c1ccc(C(c2ccccc2)N2CCC(CNC(=O)CC(c3ccc(F)cc3)c3ccc(F)cc3)C2)cc1 (centres unmarked) [Compound P52]
120 | 79 | 86 | 58 | COc1cc(CN(C)CC2CCN(C(=O)CCCCC(c3ccc(F)cc3)c3ccc(F)cc3)C2)cc(OC)c1OC (centres unmarked) [Compound P58]
– | 94 | – | 59 | COc1c(C(C)(C)C)cc(C(=O)NCC2CCN(C(=O)CCCCC(c3ccc(F)cc3)c3ccc(F)cc3)C2)cc1C(C)(C)C (centres unmarked) [Compound P42]
512 | 410 | 247 | 67 | O=C(CN(c1ccccc1)c1ccccc1)NCC1CCN(C(c2ccccc2)c2ccccc2)C1 (centres unmarked) [Compound P45]
265 | 52 | 119 | 29 | CC(C)(C)c1cc(C(=O)NCC2CCN(C(=O)CCCCC(c3ccc(F)cc3)c3ccc(F)cc3)C2)cc(C(C)(C)C)c1 (centres unmarked) [Compound P44]
80 | 94 | 24 | 21 | O=C(CC(c1ccccc1)c1ccccc1)NCC1CCN(C(c2ccccc2)c2cccc(Cl)c2)C1 (centres unmarked) [Compound P38]
380 | – | 330 | – | COc1cc(C(=O)N2CCC(CN(C)CCCCCC(c3ccc(F)cc3)c3ccc(F)cc3)C2)cc(OC)c1OC (centres unmarked) [Compound P63]
295 | 24 | 185 | 8 | O=C(NCC1CCN(C(c2ccccc2)c2ccccc2)C1)NC(c1ccccc1)c1ccccc1 (centres unmarked) [Compound P47]
72 | – | 56 | – | O=C(CC(c1ccc(F)cc1)c1ccc(F)cc1)NCC1CCN(C(c2ccccc2)c2ccccc2)C1 (centres unmarked) [Compound P51]
137 | – | 92 | – | CN(CCC(c1ccccc1)c1ccccc1)CC1CCN(C(c2ccccc2)c2ccccc2)C1 (centres unmarked) [Compound P56]
76 | – | 53 | – | O=C(CC(c1ccc(F)cc1)c1ccc(F)cc1)NCC1CCN(C(c2ccccc2)c2ccc(F)cc2)C1 (centres unmarked) [Compound P50]

More lines, now with the values behind:

SMILES | IC50 [1, 3] [nM] | IC50 [2, 4] [nM] | IC50 [1, 5] [nM] | IC50 [2, 6] [nM]
COc1c(C(C)(C)C)cc(C(=O)N2CCC(CNC(=O)CCCCC(c3ccc(F)cc3)c3ccc(F)cc3)C2)cc1C(C)(C)C (centres unmarked) [Compound P11] | 10 | 27 | – | –
COc1c(C(C)(C)C)cc(CNCC2CCN(CCCCCC(c3ccc(F)cc3)c3ccc(F)cc3)C2)cc1C(C)(C)C (centres unmarked) [Compound P14] | 39 | – | – | –
O=C(COc1ccc(Cl)cc1)NCC1CCN(C(=O)CCCCC(c2ccc(F)cc2)c2ccc(F)cc2)C1 (centres unmarked) [Compound P36] | 100 | 30 | 20 | 12
COc1cc(CNCC2CCN(CCCCCC(c3ccc(F)cc3)c3ccc(F)cc3)C2)cc(OC)c1OC (centres unmarked) [Compound P4] | 400 | – | – | –
O=C(NCC1CCN(CCCCCC(c2ccc(F)cc2)c2ccc(F)cc2)C1)c1cc(C(F)(F)F)cc(C(F)(F)F)c1 (centres unmarked) [Compound P21] | 210 | – | 150 | –
CC(C)(C)c1cc(C(=O)N2CCC(CNC(=O)CCCCC(c3ccc(F)cc3)c3ccc(F)cc3)C2)cc(C(C)(C)C)c1O (centres unmarked) [Compound P9] | 15 | – | – | –
CC(C)(C)c1cc(CNCC2CCN(CCCCCC(c3ccc(F)cc3)c3ccc(F)cc3)C2)cc(C(C)(C)C)c1 (centres unmarked) [Compound P18] | 28 | – | – | –
O=C(COc1ccc(F)cc1F)NCC1CCN(C(=O)CCCCC(c2ccc(F)cc2)c2ccc(F)cc2)C1 (centres unmarked) [Compound P31] | 563 | 460 | 220 | 196
COc1cc(C(=O)NCC2CCN(C(=O)CCCCC(c3ccc(F)cc3)c3ccc(F)cc3)C2)cc(OC)c1OC (centres unmarked) [Compound P3] | 417 | 86 | – | –
O=C(CC(c1ccccc1)c1ccccc1)NCC1CCN(C(c2ccccc2)c2ccccc2)C1 (centres unmarked) [Compound P1] | 61 | – | – | –
CN(C)CCOc1c(C(C)(C)C)cc(C(=O)N2CCC(CNC(=O)CCCCC(c3ccc(F)cc3)c3ccc(F)cc3)C2)cc1C(C)(C)C (centres unmarked) [Compound P23] | 410 | – | 200 | –
COc1c(C(C)(C)C)cc(CN2CCC(CNCCCCCC(c3ccc(F)cc3)c3ccc(F)cc3)C2)cc1C(C)(C)C (centres unmarked) [Compound P12] | 32 | – | – | –
CC(C)(C)c1cc(CNCC2CCN(CCCCCC(c3ccc(F)cc3)c3ccc(F)cc3)C2)cc(C(C)(C)C)c1O (centres unmarked) [Compound P8] | 35 | – | – | –
COc1cc(C(=O)NCC2CCN(CCCCCC(c3ccc(F)cc3)c3ccc(F)cc3)C2)cc(OC)c1OC (centres unmarked) [Compound P20] | 450 | – | 280 | –
COc1cc(CN2CCC(CNCCCCCC(c3ccc(F)cc3)c3ccc(F)cc3)C2)cc(OC)c1OC (centres unmarked) [Compound P6] | 212 | – | – | –
CC(C)(C)c1cc(C(=O)NCC2CCN(C(=O)CCCCC(c3ccc(F)cc3)c3ccc(F)cc3)C2)cc(C(C)(C)C)c1O (centres unmarked) [Compound P7] | 49 | – | – | –
COc1c(C(C)(C)C)cc(C(=O)NCC2CCN(CCCCCC(c3ccc(F)cc3)c3ccc(F)cc3)C2)cc1C(C)(C)C (centres unmarked) [Compound P19] | – | 70 | – | –
